In patent US7994204B2, “Binding inhibitor of sphingosine-1-phosphate” (Taisho Pharmaceutical Co., Ltd, priority 2006, dated 2011):

Columns and labels:
human Edg-1 (S1P1) = target: T1, human Edg-1 (S1P1) (Homo sapiens, UniProt P21453); experiment: S1P1 binding inhibition test (membrane, [33P]-S1P); settings: for inhibition at 10 µM: compound 10 μM, [33P]-S1P 0.1 nM, human Edg-1 (S1P1) HEK-293 membrane fraction, read-out: Binding test (membrane) % inhibition (10 μM); for IC50: membrane system binding test, various concentrations
T1 construct: expressed in transfected cells; host or cells: HEK-293
Method: The membrane fraction was obtained by treating the cells with a solubilizing buffer (1 mM Tris/HCl, pH 7.2) for 10 minutes on ice, centrifuging at 1000×g for 5 minutes to remove insoluble fractions, and then centrifuging at 40000×g for 30 minutes at 4° C. The resulting membrane fraction was dissolved in a binding buffer (20 mM Tris-HCl, pH 7.4, 100 mM NaCl, 15 mM NaF, 2 mM deoxypyridoxine, 4 mg/mL fatty acid-free BSA), and then [^33P]-S1P (manufactured by ARC, final concentration 0.1 nM) and a DMSO solution (final concentration of the compound 10^−5 M, final concentration of DMSO 0.1%) of the test compound were added. Thereafter, the mixture was stirred and then treated for one hour at 30° C. Using a harvester, the membrane fraction was harvested onto unifilter-96 GF/C filter (manufactured by Perkin Elmer), washing was carried out four times with the binding buffer, and the filter was dried. Twenty five μL Microscint 0 (manufactured by Perkin Elmer) was added, and radioactivity was measured using Top Count NXT (manufactured by Packard) to calculate the amount (A) of [^33P]-S1P bound to the membrane fraction at the time when the compound was added.
The same procedure was carried out in the absence of the test compound, and the amount (B) of [^33P]-S1P bound was calculated. Further, the same procedure was carried out in the absence of the test compound by use of HEK-293 cells to which no Edg-1 (S1P1) gene was introduced, and the background amount (C) of [^33P]-S1P bound was calculated.
Inhibition rate (%)=[1−(A−C)/(B−C)]×100.
Moreover, the concentration required for a test compound to produce 50% inhibition of the binding caused in the absence of the test compound was also calculated (IC50). The above membrane system binding test was performed in the presence of a test compound at various concentrations to calculate the inhibition rate of Edg-1(S1P1) binding at each concentration according to the above equation, followed by calculating an IC50 value for each compound with data analysis software, Origin (Lightstone Corp., Japan).

T1 sequence (P21453 whole entry): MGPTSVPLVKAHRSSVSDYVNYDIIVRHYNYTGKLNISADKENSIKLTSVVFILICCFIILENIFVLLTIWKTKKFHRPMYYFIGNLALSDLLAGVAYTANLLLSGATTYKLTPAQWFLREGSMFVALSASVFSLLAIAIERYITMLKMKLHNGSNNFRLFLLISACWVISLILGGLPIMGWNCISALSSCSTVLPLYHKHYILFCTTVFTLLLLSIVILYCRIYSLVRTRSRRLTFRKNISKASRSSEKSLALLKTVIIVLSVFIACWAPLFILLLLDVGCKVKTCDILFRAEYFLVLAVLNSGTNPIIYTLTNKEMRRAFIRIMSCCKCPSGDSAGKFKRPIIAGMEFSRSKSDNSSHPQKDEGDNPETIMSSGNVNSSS

| inhibition at 10 µM (human Edg-1 (S1P1)) [%] | IC50 (human Edg-1 (S1P1)) [nM] | melting point [°C] | Compound |
| --- | --- | --- | --- |
| 99.6 | 49 | 185.5 to 187.5 | CCn1c(C(C)NS(=O)(=O)c2ccc(Cl)c(Cl)c2)cnc1Oc1ccc2ccncc2c1 (stereo not drawn) [Compound 213] |
| 96 |  | 160.5 to 162.5 | CCn1c(C(C)NS(=O)(=O)c2ccc(Cl)c(Cl)c2)cnc1OCCCN1CCOCC1 (stereo not drawn) [Compound 228] |
| 92.3 |  | 128.5 to 129.5 | CCn1c(Oc2ccc(F)cc2)nc(Br)c1C(C)NS(=O)(=O)c1ccc(Cl)c(Cl)c1 (stereo not drawn) [Compound 232] |
| 95.7 |  | 166.5 to 167.5 | CCn1c(C(C)NS(=O)(=O)c2ccc(Cl)c(Cl)c2)cnc1Oc1ccccc1 (stereo not drawn) [Compound 204] |
| 92.2 |  | 179.5 to 180.5 | CC(NS(=O)(=O)c1ccc(Cl)c(Cl)c1)c1cnc(Oc2ccc(F)cc2)n1C (stereo not drawn) [Compound 211] |
| 93 | ≤ 70 | 172.5 to 174 | CCn1c(C(Cc2ccccc2)NS(=O)(=O)c2ccc3c(Cl)cccc3c2)cnc1Oc1ccc(F)cc1 (stereo not drawn) [Compound 194] |
|  |  | 199 to 200 | CCn1c(C(C)NS(=O)(=O)c2ccc(Cl)c(Cl)c2)cnc1OC (stereo not drawn) [Compound 240] |
| 98.3 | 32.5 | 160 to 162 | CCn1c(C(C)NS(=O)(=O)c2ccc3c(c2)CCC3)cnc1Oc1cccc(N2CCN(C)CC2)c1 (stereo not drawn) [Compound 244] |
| 101 | 10.9 | 167 to 169 | CCn1c(C(C)NS(=O)(=O)c2ccc(Cl)c(Cl)c2)cnc1Oc1cccc(N2CCOCC2)c1 (stereo not drawn) [Compound 190] |
| 97.8 | 10.3 | 171 to 172 | CCn1c(C(C)NS(=O)(=O)c2ccc(Cl)c(Cl)c2)cnc1Oc1cccc(N(C)C)c1 (stereo not drawn) [Compound 198] |
| 97.4 |  | 162 to 163 | CCn1c(C(C)NS(=O)(=O)c2ccc(Cl)c(Cl)c2)cnc1OC1CCC1 (stereo not drawn) [Compound 231] |
| 100 |  | 119.5 to 120.5 | CCn1c(Oc2ccc(F)cc2)nc(C)c1C(C)NS(=O)(=O)c1ccc(Cl)c(Cl)c1 (stereo not drawn) [Compound 188, 3,4-Dichloro-N-{1-[3-ethyl-2-(4-fluorophenoxy)-5-methyl-3H-imidazol-4-yl]-ethyl}-benzenesulfonamide] |
| 99 | ≤ 70 | 106 to 107 | CCn1c(C(C)NS(=O)(=O)c2ccc(Cl)c(Cl)c2)cnc1Oc1ccc(OCCN(C)C)cc1 (stereo not drawn) [Compound 229] |
| 91.5 |  | 172.5 to 173.5 | C#CCCCOc1ncc(C(C)NS(=O)(=O)c2ccc(Cl)c(Cl)c2)n1CC (stereo not drawn) [Compound 226] |
| 99.6 | ≤ 15 | 169.5 to 170.5 | CCn1c(C(C)NS(=O)(=O)c2ccc(Cl)c(Cl)c2)cnc1Oc1cccc(N2CCCCC2)c1 (stereo not drawn) [Compound 208] |
| 101 |  | 102.5 to 107.5 | CCn1c(C(C)NS(=O)(=O)c2ccc(Cl)c(Cl)c2)cnc1Oc1ccc(C)c(C)c1 (stereo not drawn) [Compound 218] |
| 95.9 |  | 151.5 to 152.5 | CCn1c(C(C)NS(=O)(=O)c2ccc(Cl)c(Cl)c2)cnc1OCCCOC (stereo not drawn) [Compound 239] |
| 96.1 | 20 | 174 to 175 | CCn1c(C(C)NS(=O)(=O)c2ccc(Cl)c(Cl)c2)cnc1Oc1ccc(C)nc1 (stereo not drawn) [Compound 195] |
| 93.1 |  | 152.5 | C=CCCCOc1ncc(C(C)NS(=O)(=O)c2ccc(Cl)c(Cl)c2)n1CC (stereo not drawn) [Compound 237] |
| 68.3 |  | 79 to 80 | CCCCCCC(NS(=O)(=O)c1ccc(Cl)c(Cl)c1)c1cnc(Oc2ccc(F)cc2)n1CC (stereo not drawn) [Compound 220] |
| 101 | 18.2 | 161 to 163.5 | CCn1c(C(C)NS(=O)(=O)c2ccc(Cl)c(Cl)c2)cnc1Oc1cccc(C2CCN(C)CC2)c1 (stereo not drawn) [Compound 207] |
| 90.6 |  | 154 to 155 | CCn1c(CNS(=O)(=O)c2ccc(Cl)c(Cl)c2)cnc1Oc1ccc(F)cc1 [Compound 210] |
| 69.3 |  | 171.5 to 172.5 | CCn1c(C(NS(=O)(=O)c2ccc3c(Cl)cccc3c2)c2ccccc2)cnc1Oc1ccc(F)cc1 (stereo not drawn) [Compound 202] |
| 98.9 | 42 | 170 to 171 | CCn1c(C(C)NS(=O)(=O)c2ccc(Cl)c(Cl)c2)cnc1Oc1cccc(-n2ccnc2)c1 (stereo not drawn) [Compound 209] |
| 102 | ≤ 70 | 167 to 168 | CCn1c(C(C)NS(=O)(=O)c2ccc(Cl)c(Cl)c2)cnc1Oc1ccc(OCCN2CCOCC2)cc1 (stereo not drawn) [Compound 214] |

| inhibition at 10 µM (human Edg-1 (S1P1)) [%] | IC50 (human Edg-1 (S1P1)) [nM] | melting point [°C] | Compound |
| --- | --- | --- | --- |
|  |  | 216.5 to 217.5 | CCn1c(Oc2ccc(F)cc2)nc(-c2ccccc2)c1C(C)NS(=O)(=O)c1ccc(Cl)c(Cl)c1 (stereo not drawn) [Compound 227] |
| 92.1 |  | 181 to 183 | CCCOc1ncc(C(C)NS(=O)(=O)c2ccc(Cl)c(Cl)c2)n1CC (stereo not drawn) [Compound 223] |
| 52.5 |  | 180 to 183 | CCn1c(C(C)NS(=O)(=O)c2ccc(Cl)c(Cl)c2)cnc1S(=O)(=O)c1ccc(C)cc1 (stereo not drawn) [Compound 252, 3,4-Dichloro-N-{1-[3-ethyl-2-(toluene-4-sulfonyl)-3H-imidazol-4-yl]-ethyl}-benzenesulfonamide] |
|  |  | 157.5 to 158 | CCn1c(C(NS(=O)(=O)c2ccc(Cl)c(Cl)c2)c2ccccc2)cnc1Oc1ccc(F)cc1 (stereo not drawn) [Compound 201] |
|  |  | 117 to 118 | CCCCCCCCCCCCCCCCCCOc1ncc(C(C)NS(=O)(=O)c2ccc(Cl)c(Cl)c2)n1CC (stereo not drawn) [Compound 238] |
|  |  | 137.5 to 138.5 | CCn1c(C(C)NS(=O)(=O)c2ccc3c(Cl)cccc3c2)nc(Cl)c1Oc1ccc(C)cc1 (stereo not drawn) [Compound 182] |
|  |  | 154.5 to 155.5 | CCc1c(C(C)NS(=O)(=O)c2ccc3c(Cl)cccc3c2)nn(C)c1Oc1ccc(C)cc1 (stereo not drawn) [Compound 181] |
| 92.9 |  |  | CCn1c(C(C)NS(=O)(=O)c2cc(C)cc(C)c2)cnc1Oc1ccc(C)cc1 (stereo not drawn) [Compound 115] |
| 96.7 |  |  | CCn1c(C(C)NS(=O)(=O)c2cccc(Cl)c2C)cnc1Oc1ccc(C)cc1 (stereo not drawn) [Compound 64] |
| 71.2 |  |  | CCn1c(C(C)NS(=O)(=O)c2cccc(C(C)=O)c2)cnc1Oc1ccc(C)cc1 (stereo not drawn) [Compound 161] |
| 65.6 |  |  | CCc1cc(Br)ccc1S(=O)(=O)NC(C)c1cnc(Oc2ccc(C)cc2)n1CC (stereo not drawn) [Compound 87] |
| 94.1 |  |  | CCn1c(C(C)NS(=O)(=O)c2ccc3c(c2)OCCO3)cnc1Oc1ccc(C)cc1 (stereo not drawn) [Compound 144] |
| 64.8 |  |  | CCn1c(C(C)NS(=O)(=O)c2ccc(OC(F)(F)F)cc2)cnc1Oc1ccc(C)cc1 (stereo not drawn) [Compound 39] |
| 74.2 |  |  | CCn1c(C(C)NS(=O)(=O)c2ccc(Br)cc2C)cnc1Oc1ccc(C)cc1 (stereo not drawn) [Compound 88] |
| 95.9 |  |  | CCn1c(Oc2ccc(C)cc2)cnc1C(C)NS(=O)(=O)c1ccc(Cl)c(Cl)c1 (stereo not drawn) [Compound 179, 3,4-Dichloro-N-[1-(1-ethyl-5-(4-methylphenoxy)-1H-imidazol-2-yl)-ethyl]-benzenesulfonamide] |
| 77.7 |  |  | CCn1c(C(C)NS(=O)(=O)c2cc3ccccc3s2)cnc1Oc1ccc(C)cc1 (stereo not drawn) [Compound 177] |
| 72 |  |  | CCn1c(C(C)NS(=O)(=O)c2c(C)c(C)c(C)c(C)c2C)cnc1Oc1ccc(C)cc1 (stereo not drawn) [Compound 71] |
| 66.8 |  |  | CCc1ccc(S(=O)(=O)NC(C)c2cnc(Oc3ccc(C)cc3)n2CC)cc1 (stereo not drawn) [Compound 21] |
| 89.9 |  |  | CCn1c(C(C)NS(=O)(=O)c2cccc(OC)c2)cnc1Oc1ccc(C)cc1 (stereo not drawn) [Compound 66] |
| 70.2 |  |  | CCn1c(C(C)NS(=O)(=O)c2ccc(F)c3ccccc23)cnc1Oc1ccc(C)cc1 (stereo not drawn) [Compound 162] |
| 78.2 |  |  | CCn1c(C(C)NS(=O)(=O)c2c(F)c(Br)cc(F)c2Br)cnc1Oc1ccc(C)cc1 (stereo not drawn) [Compound 102] |
| 106 |  |  | CCn1c(C(C)NS(=O)(=O)c2ccc(Br)cc2)cnc1Oc1ccc(C)cc1 (stereo not drawn) [Compound 5] |
| 57 |  |  | CCn1c(C(C)NS(=O)(=O)c2ccc(C(F)(F)F)cc2Cl)cnc1Oc1ccc(C)cc1 (stereo not drawn) [Compound 158] |
| 85.8 |  |  | CCn1c(C(C)NS(=O)(=O)c2cc(C)ccc2C)cnc1Oc1ccc(C)cc1 (stereo not drawn) [Compound 45] |
| 108 |  |  | CCn1c(C(C)NS(=O)(=O)c2ccc(C)c(Cl)c2)cnc1Oc1ccc(C)cc1 (stereo not drawn) [Compound 15] |
